Biological target: T1, EZH2 within the PRC2 complex (Homo sapiens, UniProt Q15910)
T1 construct: FLAG; made in house; host or cells: Sf9 cells
Assay: EZH2 methyltransferase scintillation proximity assay (SPA) with PRC2 complex
Assay type: biochemical
Conditions: 3H-SAM methyl transfer to Histone H3 of HeLa mononucleosomes; read-out: EZH2 pIC50 (converted)
Description: Compounds contained herein were evaluated for their ability to inhibit the methyltransferase activity of EZH2 within the PRC2 complex. Human PRC2 complex was prepared by co-expressing each of the 5 member proteins (FLAG-EZH2, EED, SUZ12, RbAp48, AEBP2) in Sf9 cells followed by co-purification. Enzyme activity was measured in a scintillation proximity assay (SPA) where a tritiated methyl group is transferred from 3H-SAM to a lysine residue on Histone H3 of a mononucleosome, purified from HeLa cells. Mononucleosomes were captured on SPA beads and the resulting signal is read on a ViewLux plate reader.
Part A. Compound Preparation
• 1. Prepare 10 mM stock of compounds from solid in 100% DMSO. • 2. Set up an 11-point serial dilution (1:3 dilution, top concentration 10 mM) in 100% DMSO for each test compound in a 384 well plate leaving columns 6 and 18 for DMSO controls. • 3. Dispense […] of compound from the dilution plate into reaction plates (Grenier Bio-One, 384-well, Cat #784075). Part B. Reagent Preparation Prepare the following solutions: • 1. 50 mM Tris-HCl, pH 8: Per 1 L of base buffer, combine 1 M Tris-HCl, pH 8 (50 mL) and distilled water (950 mL). • 2. […] 2× Enzyme Solution: Per 10 mL of 2× Enzyme Solution, combine 1× Assay Buffer and PRC2 complex to provide a final enzyme concentration of 10 nM. • 4. SPA Bead Suspension: Per 1 mL of SPA Bead Suspension, combine PS-PEI coated LEADSeeker beads (40 mg) and ddH2O (1 mL) to provide a final concentration of 40 mg/mL. • 5. 2× Substrate Solution: Per 10 mL of 2× Substrate Solution, combine 1× Assay Buffer (9728.55 uL), 800 ug/mL mononucleosomes (125 uL), 1 mM cold SAM (4 uL), and 7.02 uM 3H-SAM (142.45 uL; 0.55 mCi/mL) to provide a final concentration of 5 ug/mL nucleosomes, 0.2 uM cold SAM, and 0.05 uM 3H-SAM. • 6. 2.67× Quench/Bead Mixture: Per 10 mL of 2.67× Quench/Bead Mixture, combine ddH2O (9358 uL), 10 mM cold SAM (267 uL), 40 mg/mL Bead Suspension (375 uL) to provide a final concentration of 100 uM cold SAM and 0.5 mg/mL SPA beads. Part C. Assay Reaction in 384-well Grenier Bio-One Plates Compound Addition • 1. Dispense […] of 100× Compound to test wells (as noted above). • 2. Dispense […] of 100% DMSO to columns 6 & 18 for high and low controls, respectively. Assay • 1. […] Dispense 5 uL/well of 2× Enzyme Solution to columns 1-17, 19-24. • 3. Spin assay plates for ˜1 minute at 500 rpm. • 4. Stack the assay plates, covering the top plate. • 5. Incubate the compound/DMSO with the enzyme for 30 minutes at room temperature. • 6. Dispense 5 uL/well of 2× Substrate Solution to columns 1-24. • 7. Spin assay plates for ˜1 minute at 500 rpm. • 8. Stack the assay plates, covering the top plate. • 9. Incubate the assay plates at room temperature for 1 hour. Quench/Bead Addition • 1. Dispense 5 uL/well of the 3× Quench/Bead Mixture to columns 1-24. • 2. Seal the top of each assay plate with adhesive TopSeal. • 3. Spin assay plates for ˜1 minute at 500 rpm. • 4. Equilibrate the plates for >20 min. Read Plates • 1. Read the assay plates on the Viewlux Plate Reader utilizing the 613 nm emission filter with a 300 s read time. Reagent addition can be done manually or with automated liquid handler. • The final DMSO concentration in this assay is 1%. • The positive control is in column 6; negative control is in column 18. • Final starting concentration of compounds is 100 μM. Part D. Data Analysis
Percent inhibition was calculated relative to the DMSO control for each compound concentration and the resulting values were fit using standard IC50 fitting parameters within the ABASE data fitting software package.

T1 sequence (Q15910 whole entry): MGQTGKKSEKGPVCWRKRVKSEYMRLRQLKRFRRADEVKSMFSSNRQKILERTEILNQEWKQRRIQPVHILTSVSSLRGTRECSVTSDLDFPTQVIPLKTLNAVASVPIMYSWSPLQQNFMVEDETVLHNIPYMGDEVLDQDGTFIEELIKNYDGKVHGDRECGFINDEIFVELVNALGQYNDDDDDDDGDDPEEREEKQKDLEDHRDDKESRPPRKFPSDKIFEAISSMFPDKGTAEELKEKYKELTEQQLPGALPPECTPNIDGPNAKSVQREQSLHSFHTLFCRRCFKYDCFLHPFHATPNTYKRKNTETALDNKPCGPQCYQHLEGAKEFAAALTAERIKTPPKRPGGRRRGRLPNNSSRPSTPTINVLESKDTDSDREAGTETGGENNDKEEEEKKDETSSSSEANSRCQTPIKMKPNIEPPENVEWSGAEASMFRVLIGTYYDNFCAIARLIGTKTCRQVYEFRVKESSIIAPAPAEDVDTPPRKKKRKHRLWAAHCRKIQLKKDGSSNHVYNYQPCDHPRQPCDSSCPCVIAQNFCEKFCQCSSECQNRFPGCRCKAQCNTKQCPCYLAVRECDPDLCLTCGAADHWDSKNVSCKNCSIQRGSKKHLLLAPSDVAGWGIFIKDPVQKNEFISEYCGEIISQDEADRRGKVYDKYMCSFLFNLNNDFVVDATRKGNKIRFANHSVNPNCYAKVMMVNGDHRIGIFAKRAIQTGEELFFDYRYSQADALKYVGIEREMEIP
T1 sequence (O75530 whole entry partner): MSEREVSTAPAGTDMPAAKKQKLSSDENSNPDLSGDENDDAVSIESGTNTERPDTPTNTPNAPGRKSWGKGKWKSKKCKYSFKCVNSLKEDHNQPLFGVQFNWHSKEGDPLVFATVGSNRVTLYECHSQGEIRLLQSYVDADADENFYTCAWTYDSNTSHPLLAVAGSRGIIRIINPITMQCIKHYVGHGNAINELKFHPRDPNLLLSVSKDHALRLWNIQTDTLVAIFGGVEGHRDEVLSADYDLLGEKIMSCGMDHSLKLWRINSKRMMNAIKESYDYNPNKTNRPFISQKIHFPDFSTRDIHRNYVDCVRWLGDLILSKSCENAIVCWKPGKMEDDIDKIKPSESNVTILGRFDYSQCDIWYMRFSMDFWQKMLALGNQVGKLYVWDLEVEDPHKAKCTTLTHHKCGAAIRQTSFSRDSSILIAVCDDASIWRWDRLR
T1 sequence (Q15022 whole entry partner): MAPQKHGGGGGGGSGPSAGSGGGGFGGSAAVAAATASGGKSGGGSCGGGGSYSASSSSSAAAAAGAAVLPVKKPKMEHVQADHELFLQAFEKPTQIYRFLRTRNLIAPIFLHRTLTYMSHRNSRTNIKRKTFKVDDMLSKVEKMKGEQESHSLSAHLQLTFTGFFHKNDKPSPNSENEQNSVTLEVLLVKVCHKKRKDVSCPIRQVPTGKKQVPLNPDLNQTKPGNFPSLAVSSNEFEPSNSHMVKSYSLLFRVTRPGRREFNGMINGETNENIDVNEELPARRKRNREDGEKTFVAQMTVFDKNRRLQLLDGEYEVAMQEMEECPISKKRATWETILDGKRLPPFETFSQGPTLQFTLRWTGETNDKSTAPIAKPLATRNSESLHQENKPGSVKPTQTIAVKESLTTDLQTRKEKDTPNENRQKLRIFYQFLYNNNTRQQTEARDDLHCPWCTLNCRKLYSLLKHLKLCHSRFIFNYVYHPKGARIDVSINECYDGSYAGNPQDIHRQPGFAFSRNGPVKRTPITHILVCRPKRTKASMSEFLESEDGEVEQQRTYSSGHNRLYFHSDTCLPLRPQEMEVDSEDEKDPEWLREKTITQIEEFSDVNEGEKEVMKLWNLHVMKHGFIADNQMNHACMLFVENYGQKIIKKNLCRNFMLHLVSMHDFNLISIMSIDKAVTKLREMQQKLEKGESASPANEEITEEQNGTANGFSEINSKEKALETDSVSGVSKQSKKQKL
T1 sequence (Q09028 whole entry partner): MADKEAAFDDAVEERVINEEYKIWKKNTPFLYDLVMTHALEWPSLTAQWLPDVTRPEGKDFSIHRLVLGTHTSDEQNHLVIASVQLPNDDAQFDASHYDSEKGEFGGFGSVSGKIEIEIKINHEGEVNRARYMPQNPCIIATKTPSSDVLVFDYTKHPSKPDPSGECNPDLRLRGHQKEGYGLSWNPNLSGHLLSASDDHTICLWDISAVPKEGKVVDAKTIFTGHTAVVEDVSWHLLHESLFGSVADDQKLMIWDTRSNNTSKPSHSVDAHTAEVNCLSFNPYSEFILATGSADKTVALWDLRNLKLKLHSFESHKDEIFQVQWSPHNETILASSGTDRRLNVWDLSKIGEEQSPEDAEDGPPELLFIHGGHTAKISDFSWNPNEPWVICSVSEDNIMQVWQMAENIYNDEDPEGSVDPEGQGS
T1 sequence (Q6ZN18 whole entry partner): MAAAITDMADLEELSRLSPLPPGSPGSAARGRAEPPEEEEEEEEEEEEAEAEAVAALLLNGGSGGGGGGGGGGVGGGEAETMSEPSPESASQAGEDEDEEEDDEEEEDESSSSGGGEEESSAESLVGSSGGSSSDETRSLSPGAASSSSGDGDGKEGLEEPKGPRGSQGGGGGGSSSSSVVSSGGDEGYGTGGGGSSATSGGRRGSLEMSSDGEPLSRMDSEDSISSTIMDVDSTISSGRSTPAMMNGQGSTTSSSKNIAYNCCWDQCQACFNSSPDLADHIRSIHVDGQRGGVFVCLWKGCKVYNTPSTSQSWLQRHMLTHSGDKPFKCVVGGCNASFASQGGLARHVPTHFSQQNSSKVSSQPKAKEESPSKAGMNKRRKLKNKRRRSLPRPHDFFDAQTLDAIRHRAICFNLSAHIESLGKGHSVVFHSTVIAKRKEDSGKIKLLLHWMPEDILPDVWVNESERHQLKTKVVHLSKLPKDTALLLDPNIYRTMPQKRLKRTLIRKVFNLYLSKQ

Row | SMILES | IC50
1 | Cc1cc(C)c(CNC(=O)c2cc(Nc3ccc(N4CCN(C)CC4)nc3)cc3c2c(C)cn3C(C)C)c(=O)[nH]1 [Example 361, N-[(4,6-dimethyl-2-oxo-1,2-dihydro-3-pyridinyl)methyl]-3-methyl-1-(1-methylethyl)-6-{[6-(4-methyl-1-piperazinyl)-3-pyridinyl]amino)-1H-indole-4-carboxamide] | 55 nM
2 | Cc1cc(C)c(CNC(=O)c2cc(NC(=O)N3CCN(C)CC3)cc3c2c(C)cn3C(C)C)c(=O)[nH]1 [Example 362, N-[(4,6-dimethyl-2-oxo-1,2-dihydro-3-pyridinyl)methyl]-3-methyl-1-(1-methylethyl)-6-{[(4-methyl-1-piperazinyl)carbonyl]amino}-1H-indole-4-carboxamide] | 129 nM

— US8975291B2, “Indoles” (GlaxoSmithKline LLC, priority 2010, dated 2015)
